Patent US20130011376A1, “Methods for Enhancing Natural Killer Cell Proliferation and Activity” (GAMIDA CELL LTD., priority 2009, published 2013)

How the values were obtained:
[1] = system: unselected cord blood mononuclear cell population; assay: Lymphocyte subsets (FACS) in unselected cord blood mononuclear cell cultures; type: cell-based, human; conditions: three weeks
Experimental: 1. Total mononuclear cell fraction was cultured in culture bags (American Fluoroseal Co. Gaithersburg, Md., USA), T-Flasks or 24 well plates at a concentration of 0.5−2×10^6 cells/ml in MEMα comprising 10% FCS or CellGro SCGM (Cell Genix) comprising 5-10% Human Serum/LiforCell® FBS Replacement (Lifeblood Products) containing the following human recombinant cytokines:, interleukin-2 (IL-2) (5-50 ng/ml), interleukin-15 (IL-15), interleukin7 (IL7), interleukin 21 (IL21), FLT-3 or SCF or FLT3 and SCF (Perpo Tech, Inc., Rocky Hill, N.J., USA), with or without OKT-3 (10-50 ng/ml), with or without nicotinamide (0.5-10 mM), and incubated at 37° C. in a humidified atmosphere of 5% CO2 in air. When OKT-3 was used in the culture the cultures were centrifuged after 5-7 days and the cells were resuspended with the same medium excluding the OKT-3. All cultures are topped weekly or twice a week with the same volume of fresh medium containing the growth factors with or without nicotinamide. For counting, the cells were stained with trypan blue. At various time points, samples were taken to assay the relative fractions of NK cells, CD56+CD3−, CD56+CD3+, CD34+CD56+, CD56+CD16+ and/or CD56+ NKG2A cells. Cell morphology was determined on cytospin (Shandon, Pittsburgh, Pa., USA) prepared smears stained with May-Grunwald/Giemsa solutions.
The cells were washed with a PBS solution containing 1% BSA, and stained (at 4° C. for 30 min) with fluorescein isothiocyanate (FITC)- or phycoerythrin (PE)-conjugated antibodies or allophycocyanin (APC). The cells were then washed in the above buffer and analyzed using a FACScalibur® flow cytometer (Becton Dickinson, San Jose, Calif., USA). The cells were passed at a rate of up to 1000 cells/second, using a 488 nm or 661 nm argon laser beam as the light source for excitation. Emission of 10^4 cells was measured using logarithmic amplification, and analyzed using the CellQuest software (Becton Dickinson). Cells stained with FITC, PE and APC-conjugated isotype control antibodies were used to determine background fluorescence. […]

[2] = system: cord-blood derived CD56+ cells; assay: Transwell chemotaxis (migration) assay; type: cell-based, human
Experimental: Chemotaxis (“migration”) assay: Migration response (chemotaxis) of human NK cells was assayed by Transwell migration assay (Costar, Cambridge, Mass.; 6.5-mm diameter, 5-μm pore size). Briefly, 100 μL chemotaxis buffer (RPMI 1640, 1% FCS) containing 2×10^5 NK cells was added to the upper chamber, and 0.5 mL chemotaxis buffer with or without 250 ng/ml stromal-derived factor CXCL12 (“SDF-1”) (R&D Systems) was added to the bottom chamber. Cells migrating within 4 hours to the bottom chamber of the “transwell” were counted for 60 seconds using FACScalibur (Becton Dickinson Immunocytometry Systems).

[3] = system: colo205 colorectal adenocarcinoma cell line; type: cell-based; conditions: 5 mM nicotinamide, all E:T ratios tested (1:1 to 10:1)
[4] = 0.5, 1, 2.5 and 5 mM nicotinamide

## NC(=O)c1cccnc1 [nicotinamide]
[1]; [4]
  proliferation in culture of CD56+/CD3- NK cells: dose-dependent nicotinamide-induced enhancement of proliferation
  proliferation in culture of CD56+/CD45+ cells: dose-dependent nicotinamide-induced enhancement of proliferation
[1]; 0.5 to 5 mM nicotinamide, dose-dependent
  CD3+ CD56- T cell growth: inhibition
[2]; cells cultured with 2.5 or 5 mM nicotinamide, 250 ng/ml SDF
  migration in response to SDF stimulus: greatly enhanced
[2]; nicotinamide-cultured CD56+ cells, no SDF
  motility in the absence of SDF stimulus: enhanced motility
[3]
  cytotoxic potential towards solid tumor cells: increased killing potential
